{"source": "patent US9175031B2", "about": "“Ketolide compounds” (WOCKHARDT LIMITED, priority 2010, dated 2015)", "key": {"[1]": {"tested_on": "S pyogene 3530, a high level ermb strain", "assay": "MIC, CLSI agar dilution method", "assay_type": "cell-based", "conditions": "S pyogene 3530, high level ermb strain, 18 hrs at 37° C.", "experimental": "(§1) The antibacterial activity of compounds of the invention was evaluated by determining the minimal inhibitory concentration (MIC) according to standard CLSI agar dilution method. The media used for preculture and main culture were Tryptic Soya broth (Difco) and Mueller Hinton medium (Difco), respectively. The Mueller Hinton agar was supplemented with 5% sheep blood for streptococci and pneumococci, and with haemoglobin as well as NAD (nicotinamide adenine dinucleotide) for Haemophilus influenzae, respectively. Overnight cultures were diluted with buffered saline (pH 7.2) to the final cell density of 5×10^6-10^7 CFU/ml, and each bacterial suspension was applied with a replicator (Denley's multipoint inoculator, UK) onto a series of Mueller-Hinton agar plates containing antibacterial agents at various concentrations. Final inoculum was approximately 10^4 CFU/spot. The plates were incubated for 18 hrs at 37° C. The MIC was defined as the lowest concentration of an antibacterial agent that inhibits the development of visible microbial growth on agar."}, "H influenzae": {"tested_on": "H influenzae", "assay": "MIC, CLSI agar dilution method", "assay_type": "cell-based", "conditions": "18 hrs at 37° C.", "experimental": "as §1"}, "[2]": {"tested_on": "S pneumoniae sensitive strains", "assay": "MIC, CLSI agar dilution method", "assay_type": "cell-based", "conditions": "18 hrs at 37° C.", "experimental": "as §1"}, "[3]": {"tested_on": "S pneumoniae ermb strains", "assay": "MIC, CLSI agar dilution method", "assay_type": "cell-based", "conditions": "18 hrs at 37° C.", "experimental": "as §1"}, "[4]": {"tested_on": "S pneumoniae 3773, a high level ermb strain", "assay": "MIC, CLSI agar dilution method", "assay_type": "cell-based", "conditions": "S pneumoniae 3773, high level ermb strain, 18 hrs at 37° C.", "experimental": "as §1"}, "S pneumoniae mef strains": {"tested_on": "S pneumoniae mef strains", "assay": "MIC, CLSI agar dilution method", "assay_type": "cell-based", "conditions": "18 hrs at 37° C.", "experimental": "as §1"}, "S pneumoniae 3773": {"tested_on": "S pneumoniae 3773", "assay": "In vivo oral efficacy (ED50) in mice intraperitoneally infected with S pneumoniae 3773", "conditions": "Mus musculus, two doses at 1 hour and 4 hour after intraperitoneal infection with S pneumoniae 3773, survival on day seven, read-out: ED50 (Dose protecting 50% of infected mice)", "experimental": "The in vivo efficacy of compounds of the invention was evaluated by determining ED50 by oral administration of compounds to group of mice (6 mice/dose group) intraperitoneally infected with (5×10^7-1×10^8 CFU/mouse) S pneumoniae 3773. Two doses of compounds of the invention and Telithromycin were administered at 1 hour and 4 hour after infection. On day seven, percentage of animals surviving in various dose groups were employed to determine ED50 (Dose protecting 50% of infected mice)"}}, "data": [{"smiles": "CC[C@@H]1OC(=O)[C@@](C)(F)C(=O)[C@H](C)[C@@H](OC2O[C@H](C)C[C@H](N(C)C)[C@H]2O)[C@](C)(OC)C[C@@H](C)C(=O)[C@H](C)[C@H]2[C@H](/C(N)=N/OCc3ncc(-c4ccon4)cn3)C(=O)O[C@@]21C", "note": "(stereo partly drawn) [Example 3, (11S,21R)-3-decladinosyl-11,12-dideoxy-2-fluoro-6-O-methyl-3-oxo-12,11-{oxycarbonyl-[E-N-[(5-isoxazol-3-yl-pyrimidin-2-yl)-methoxy]-carboxamidino]methylene}-erythromycin A]", "values": [{"measurement": "melting point", "result": "196 to 197", "unit": "°C"}]}, {"smiles": "CC[C@@H]1OC(=O)[C@@](C)(F)C(=O)[C@H](C)[C@@H](OC2O[C@H](C)C[C@H](N(C)C)[C@H]2O)[C@](C)(OC)C[C@@H](C)C(=O)[C@H](C)[C@H]2[C@H](/C(N)=N/OCc3nnc(-c4ncccn4)s3)C(=O)O[C@@]21C", "note": "(stereo partly drawn) [Example 7, (11S,21R)-3-decladinosyl-11,12-dideoxy-2-fluoro-6-O-methyl-3-oxo-12,11-{oxycarbonyl-[E-N-[(5-pyrimidin-2-yl-1,3,4-thiadiazol-2-yl)-methoxy]-carboxamidino]methylene}-erythromycin A]", "values": [{"measurement": "melting point", "result": "192 to 194", "unit": "°C"}]}, {"smiles": "CC[C@@H]1OC(=O)[C@H](C)C(=O)[C@H](C)[C@@H](OC2O[C@H](C)C[C@H](N(C)C)[C@H]2O)[C@](C)(OC)C[C@@H](C)C(=O)[C@H](C)[C@H]2[C@H](/C(N)=N/O[C@@H](C)c3nnc(-c4ccccn4)s3)C(=O)O[C@@]21C", "note": "(stereo partly drawn) [Example 33, (11S,21R)-3-decladinosyl-11,12-dideoxy-6-O-methyl-3-oxo-12,11-{oxycarbonyl-[E-N-[1-(5-pyridin-2-yl-1,3,4-thiadiazol-2-yl)-(S)-ethoxy]-carboxamidino]methylene}-erythromycin A]", "values": [{"measurement": "melting point", "result": "135 to 137", "unit": "°C"}]}, {"smiles": "CC[C@H]1OC(=O)[C@H](C)C(=O)[C@H](C)[C@@H](O[C@@H]2O[C@H](C)C[C@H](N(C)C)[C@H]2O)[C@](C)(OC)C[C@@H](C)C(=O)[C@H](C)[C@H]2N(CCCCn3cnc(-c4cccnc4)c3)C(=O)O[C@]12C", "note": "[Telithromycin]", "values": [{"measurement": "MIC", "setting": "[1]", "result": 16, "unit": "µg/mL"}, {"measurement": "MIC", "setting": "H influenzae", "result": "4 to 8", "unit": "µg/mL"}, {"measurement": "MIC", "setting": "[2]", "result": "0.007 to 0.015", "unit": "µg/mL"}, {"measurement": "MIC", "setting": "[3]", "result": "0.007 to 0.5", "unit": "µg/mL"}, {"measurement": "MIC", "setting": "[4]", "result": 4, "unit": "µg/mL"}, {"measurement": "MIC", "setting": "S pneumoniae mef strains", "result": "0.015 to 1", "unit": "µg/mL"}, {"measurement": "ED50", "setting": "S pneumoniae 3773", "result": "75 to 100", "unit": "mg/kg"}]}]}
